What follows are cell lines tested with Cc1nc(NC(=O)N2CCC[C@H]2C(N)=O)sc1-c1ccnc(C(C)(C)C(F)(F)F)c1 [Alpelisib] (assay: relative viability (nuclei count vs DMSO), 5 days (fraction); higher = more cells survive). Details: 0.4 µM.
Method in brief: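 Acceptance criteria were a control CV below 25% and at least one doubling per plate. Lung cancer cell lines in 1536-well plates got five library-drug doses (not always all listed) √10 apart by pinning and were left 5 days with no medium change. Viability divides treated-well nuclei by vehicle-well nuclei and is the median across plates. Nuclei were counted by MetaXpress from 4× Hoechst images.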
SW 900 was tested, and the relative viability was 1. With SK-MES-1 the relative viability was 1.09. Work on NCI-H441 yielded a relative viability of 1.01. HCC-78 was tested, and the relative viability was 0.897.

Same assay, conditions: 1.265 µM
For NCI-H2126, the relative viability was 0.791. With EPLC-272H the relative viability was 0.778. For NCI-H1755, the relative viability was 0.876. NCI-H2023 was tested, and the relative viability was 0.649. With NCI-H1623 the relative viability was 0.629. In the case of NCI-H1650, the relative viability is reported as 0.814. For NCI-H1793, the relative viability was 0.731. NCI-H2342 gave a relative viability of 0.79. In the case of H3255, the relative viability is reported as 0.755. NCI-H1975 showed a relative viability of 0.664. Cell Line PC-14 has a relative viability of 0.89. NCI-H1299 was tested, and the relative viability was 0.988. NCI-H1437 gave a relative viability of 0.864. In the case of HOP-62, the relative viability is reported as 0.863. Cell Line HCC-44 has a relative viability of 0.846. In the case of BEN, the relative viability is reported as 1.01. LOU-NH91 was tested, and the relative viability was 0.753. NCI-H661 gave a relative viability of 0.924. Work on NCI-H1651 yielded a relative viability of 0.844. With PC-3 [JPC-3] the relative viability was 0.943. With SW 1573 the relative viability was 0.704. In the case of LK-2, the relative viability is reported as 0.563. NCI-H2405 gave a relative viability of 0.824. NCI-H1703 gave a relative viability of 0.465. In the case of NCI-H1648, the relative viability is reported as 0.576. NCI-H1993 showed a relative viability of 0.698. With ChaGo-K-1 the relative viability was 0.871. Work on NCI-H1355 yielded a relative viability of 0.876. Work on HCC-366 yielded a relative viability of 0.947. NCI-H1915 was tested, and the relative viability was 0.948. Work on NCI-H838 yielded a relative viability of 0.706. Cell Line A-427 has a relative viability of 0.871. NCI-H2009 was tested, and the relative viability was 1.01. With ABC-1 the relative viability was 0.662. EKVX showed a relative viability of 0.821. NCI-H2087 was tested, and the relative viability was 0.868. NCI-H1734 gave a relative viability of 0.644. LCLC-103H gave a relative viability of 0.779. Calu-6 gave a relative viability of 0.941. LU99A gave a relative viability of 0.773. In the case of NCI-H460, the relative viability is reported as 0.949. NCI-H2170 was tested, and the relative viability was 0.769. Cell Line SK-LU-1 has a relative viability of 0.855. Cell Line NCI-H522 has a relative viability of 0.807. With COR-L23 the relative viability was 0.837. HCC-15 gave a relative viability of 0.886. NCI-H1944 gave a relative viability of 0.79. With NCI-H1563 the relative viability was 0.768. EMC-BAC-2 gave a relative viability of 0.672. With NCI-H1792 the relative viability was 0.636. NCI-H1395 gave a relative viability of 0.73. For LC-2-ad, the relative viability was 0.685. NCI-H2085 showed a relative viability of 0.93. NCI-H727 was tested, and the relative viability was 0.789. For NCI-H647, the relative viability was 0.757. Work on HARA yielded a relative viability of 0.817. NCI-H3122 gave a relative viability of 0.968. NCI-H358 showed a relative viability of 0.586. CAL-12T gave a relative viability of 0.963. In the case of COR-L 105, the relative viability is reported as 0.876. LCLC-97TM1 gave a relative viability of 0.796. In the case of NCI-H520, the relative viability is reported as 0.725. EBC-1 showed a relative viability of 0.853. NCI-H2228 was tested, and the relative viability was 0.686. NCI-H23 was tested, and the relative viability was 0.739. With HCC-827 the relative viability was 0.981. Work on NCI-H2347 yielded a relative viability of 0.949. Cell Line A549 has a relative viability of 0.774. IA-LM showed a relative viability of 0.753. For LXF-289, the relative viability was 1. NCI-H1666 gave a relative viability of 0.84. With RERF-LC-KJ the relative viability was 0.824. NCI-H650 gave a relative viability of 0.752. NCI-H322M gave a relative viability of 0.698. With NCI-H596 the relative viability was 0.52. 201T gave a relative viability of 0.873. Cell Line SW 900 has a relative viability of 0.789. SK-MES-1 gave a relative viability of 0.894. Work on NCI-H441 yielded a relative viability of 0.605. HCC-78 gave a relative viability of 0.664.

Same assay, conditions: 2 µM; anchor plate
NCI-H2126 showed a relative viability of 0.746. EPLC-272H gave a relative viability of 0.92. In the case of NCI-H1755, the relative viability is reported as 0.942. In the case of NCI-H2023, the relative viability is reported as 0.6. With NCI-H1793 the relative viability was 0.792. H3255 was tested, and the relative viability was 0.698. For NCI-H1975, the relative viability was 0.679. In the case of PC-14, the relative viability is reported as 0.908. NCI-H1299 gave a relative viability of 1.04. In the case of NCI-H1437, the relative viability is reported as 0.965. For HOP-62, the relative viability was 0.974. HCC-44 showed a relative viability of 0.811. BEN gave a relative viability of 1.04. LOU-NH91 was tested, and the relative viability was 0.732. Cell Line NCI-H661 has a relative viability of 0.719. Work on NCI-H1651 yielded a relative viability of 0.973. With PC-3 [JPC-3] the relative viability was 0.999. Work on SW 1573 yielded a relative viability of 0.733. LK-2 gave a relative viability of 1.1. NCI-H2405 gave a relative viability of 0.749. In the case of NCI-H1703, the relative viability is reported as 0.348. NCI-H1993 was tested, and the relative viability was 0.707. NCI-H1355 showed a relative viability of 0.855. Cell Line HCC-366 has a relative viability of 0.443. For NCI-H1915, the relative viability was 1.06. NCI-H838 gave a relative viability of 1.03. A-427 showed a relative viability of 1.09. NCI-H2009 gave a relative viability of 1.13. For ABC-1, the relative viability was 1.05. With EKVX the relative viability was 0.893. NCI-H2087 showed a relative viability of 1. For NCI-H1734, the relative viability was 0.674. With LCLC-103H the relative viability was 0.969. With Calu-6 the relative viability was 0.98. For LU99A, the relative viability was 0.511. Cell Line NCI-H460 has a relative viability of 0.536. NCI-H2170 gave a relative viability of 0.825. SK-LU-1 showed a relative viability of 0.922. Work on COR-L23 yielded a relative viability of 0.739. HCC-15 was tested, and the relative viability was 0.852. Cell Line NCI-H1944 has a relative viability of 0.842. Cell Line NCI-H1563 has a relative viability of 0.966. EMC-BAC-2 was tested, and the relative viability was 0.751. For NCI-H1792, the relative viability was 0.728. For NCI-H1395, the relative viability was 1.14. In the case of LC-2-ad, the relative viability is reported as 0.868. NCI-H2085 was tested, and the relative viability was 0.984. NCI-H727 was tested, and the relative viability was 0.586. With NCI-H647 the relative viability was 1.18. For HARA, the relative viability was 0.805. NCI-H3122 gave a relative viability of 0.759. Work on NCI-H358 yielded a relative viability of 0.88. Work on CAL-12T yielded a relative viability of 1.14. For COR-L 105, the relative viability was 1.03. LCLC-97TM1 was tested, and the relative viability was 0.257. For NCI-H520, the relative viability was 0.945. Work on EBC-1 yielded a relative viability of 0.866. NCI-H2228 was tested, and the relative viability was 0.742. NCI-H23 showed a relative viability of 0.78. In the case of HCC-827, the relative viability is reported as 0.945. For NCI-H2347, the relative viability was 0.992. A549 gave a relative viability of 0.84. For IA-LM, the relative viability was 0.799. LXF-289 gave a relative viability of 1.06. Work on NCI-H1666 yielded a relative viability of 0.977. RERF-LC-KJ gave a relative viability of 0.844. Work on NCI-H650 yielded a relative viability of 1.14. Work on NCI-H322M yielded a relative viability of 0.786. For NCI-H596, the relative viability was 0.478. 201T was tested, and the relative viability was 1.01. Cell Line SK-MES-1 has a relative viability of 0.896. With NCI-H441 the relative viability was 0.766. Work on HCC-78 yielded a relative viability of 0.378.

Same assay, conditions: 4 µM
Cell Line NCI-H2126 has a relative viability of 0.758. In the case of EPLC-272H, the relative viability is reported as 0.61. In the case of NCI-H1755, the relative viability is reported as 0.853. Work on NCI-H2023 yielded a relative viability of 0.5. In the case of NCI-H1623, the relative viability is reported as 0.631. NCI-H1650 was tested, and the relative viability was 0.815. For NCI-H1793, the relative viability was 0.626. With NCI-H2342 the relative viability was 0.675. Cell Line H3255 has a relative viability of 0.743. NCI-H1975 showed a relative viability of 0.561. Work on PC-14 yielded a relative viability of 0.973. With NCI-H1299 the relative viability was 0.945. NCI-H1437 gave a relative viability of 0.89. HOP-62 showed a relative viability of 0.955. Work on HCC-44 yielded a relative viability of 0.861. BEN gave a relative viability of 0.847. In the case of LOU-NH91, the relative viability is reported as 0.604. NCI-H661 was tested, and the relative viability was 0.909. NCI-H1651 gave a relative viability of 0.841. PC-3 [JPC-3] gave a relative viability of 1.01. For SW 1573, the relative viability was 0.649. LK-2 showed a relative viability of 0.599. NCI-H2405 was tested, and the relative viability was 0.703. Cell Line NCI-H1703 has a relative viability of 0.462. NCI-H1648 was tested, and the relative viability was 0.257. With NCI-H1993 the relative viability was 0.609. ChaGo-K-1 gave a relative viability of 0.75. With NCI-H1355 the relative viability was 0.867. Work on HCC-366 yielded a relative viability of 0.627. Work on NCI-H1915 yielded a relative viability of 0.893. With NCI-H838 the relative viability was 0.689. With A-427 the relative viability was 0.911. Work on NCI-H2009 yielded a relative viability of 0.903. In the case of ABC-1, the relative viability is reported as 0.608. With EKVX the relative viability was 0.614. NCI-H2087 gave a relative viability of 0.85. NCI-H1734 was tested, and the relative viability was 0.508. LCLC-103H showed a relative viability of 0.749. Calu-6 was tested, and the relative viability was 0.922. Cell Line LU99A has a relative viability of 0.696. NCI-H460 was tested, and the relative viability was 0.757. NCI-H2170 showed a relative viability of 0.621. Cell Line SK-LU-1 has a relative viability of 0.812. Cell Line NCI-H522 has a relative viability of 0.736. Cell Line COR-L23 has a relative viability of 0.786. Cell Line HCC-15 has a relative viability of 0.759. NCI-H1944 was tested, and the relative viability was 0.447. Work on NCI-H1563 yielded a relative viability of 0.84. With EMC-BAC-2 the relative viability was 0.604. NCI-H1792 showed a relative viability of 0.383. With NCI-H1395 the relative viability was 0.785. LC-2-ad gave a relative viability of 0.672. Work on NCI-H2085 yielded a relative viability of 0.889. Cell Line NCI-H727 has a relative viability of 0.565. NCI-H647 showed a relative viability of 0.832. In the case of HARA, the relative viability is reported as 0.504. For NCI-H3122, the relative viability was 0.744. Work on NCI-H358 yielded a relative viability of 0.493. CAL-12T showed a relative viability of 0.955. COR-L 105 was tested, and the relative viability was 0.853. Work on LCLC-97TM1 yielded a relative viability of 0.521. In the case of NCI-H520, the relative viability is reported as 0.503. In the case of EBC-1, the relative viability is reported as 0.862. NCI-H2228 showed a relative viability of 0.495. NCI-H23 showed a relative viability of 0.706. Work on HCC-827 yielded a relative viability of 1. Work on NCI-H2347 yielded a relative viability of 0.864. With A549 the relative viability was 0.538. With IA-LM the relative viability was 0.717. Cell Line LXF-289 has a relative viability of 0.961. NCI-H1666 gave a relative viability of 0.8. For RERF-LC-KJ, the relative viability was 0.87. NCI-H650 was tested, and the relative viability was 0.738. NCI-H322M was tested, and the relative viability was 0.682. NCI-H596 gave a relative viability of 0.567. Cell Line 201T has a relative viability of 0.816. In the case of SW 900, the relative viability is reported as 0.651. With SK-MES-1 the relative viability was 0.757. Work on NCI-H441 yielded a relative viability of 0.662. HCC-78 was tested, and the relative viability was 0.655.

Source: the supplement of paper PMC10307832
